# In patent US11229618B2 (Amarin Pharmaceuticals Ireland Limited, priority 2012, dated 2022):
# Entries after “also recorded” stand apart in the source; their conditions may differ.
# Legend:
# [1] = MARINE: plasma fatty acid concentrations, ratios and class proportions (GC/FID); format: in vivo, human; details: for Mono-unsaturated, proportion to total fatty acids, Mean placebo-adjusted percent change from baseline / Total omega-6, proportion to total fatty acids, Mean placebo-adjusted percent change from baseline / Saturated, proportion to total fatty acids, Mean placebo-adjusted percent change from baseline / Total omega-3, proportion to total fatty acids, Mean placebo-adjusted percent change from baseline: Plasma; for Palmitic Mean placebo-adjusted percent change from baseline / Oleic Mean placebo-adjusted percent change from baseline / Stearic Mean placebo-adjusted percent change from baseline / Linoleic Mean placebo-adjusted percent change from baseline / DHA Mean placebo-adjusted percent change from baseline / AA Mean placebo-adjusted percent change from baseline / DPAn-3 Mean placebo-adjusted percent change from baseline: plasma, week 12
# Experimental: A multi-center, placebo-controlled randomized, double-blind, 12-week study with an open-label extension is performed to evaluate the efficacy and safety of AMR101 in patients with fasting triglyceride levels≥500 mg/dL. The primary objective of the study is to determine the efficacy of AMR101 2 g daily and 4 g daily, compared to placebo, in lowering fasting TG levels in patients with fasting TG levels≥500 mg/dL and ≤1500 mg/dL (≥5.65 mmol/L and ≤16.94 mmol/L).
# Eligible patients will be randomly assigned at Visit 4 (Week 0) to receive orally AMR101 2 g daily, AMR101 4 g daily, or placebo for the 12-week double-blind treatment period. AMR101 is provided in 1 g liquid-filled, oblong, gelatin capsules. The matching placebo capsule is filled with light liquid paraffin and contains 0 g of AMR101. During the double-blind treatment period, patients will take 2 capsules (AMR101 or matching placebo) in the morning and 2 in the evening for a total of 4 capsules per day. Patients in the AMR101 2 g/day treatment group will receive 1 AMR101 1 g capsule and 1 matching placebo capsule in the morning and in the evening. Patients in the AMR101 4 g/day treatment group will receive 2 AMR101 1 g capsules in the morning and evening.
# Lipids were extracted from plasma and RBC suspensions and converted into fatty acid methyl esters for analysis using a standard validated gas chromatography/flame ionization detection method. Fatty acid parameters were compared between EPA treatment groups and placebo using an ANCOVA model with treatment, gender, type of statin therapy, and presence of diabetes as factors, and the baseline parameter value as a covariate. LSMs, SEs, and 2-tailed 95% confidence intervals for each treatment group and for each comparison were determined.
# The monounsaturated fatty acid group included myristoleic, palmitoleic, cis-vaccenic, oleic, gondoic/gadoleic, erucic and nervonic acids. The saturated fatty acid group included myristic, palmitic, stearic, arachidic, behenic and lignoceric acids. The “total omega-3” group included α-linolenic, stearidonic, eicosatrienoic, ω-3 arachidonic, eicosapentaenoic, ω-3 docosapentaenoic and docosahecaenoic acids. The “total omega-6” group included linoleic, γ-linolenic, eicosadienoic, dihomo-γ-linolenic, ω-6 arachidonic, adrenic, and ω-6 docosapentaenoic acids. The “total fatty acid” group represented the sum of the monounsaturated, saturated, total omega-3 and total omega-6 groups.
# [2] = Phase 1 multidose pharmacokinetic study: total EPA in plasma (LC-MS/MS); format: in vivo, human; details: for Total EPA in plasma, CL/F: day 28; for mean plasma CL/F of ethyl eicosapentaenoate: human
# Experimental: A study to characterize the pharmacokinetics of ethyl eicosapentaenoate in plasma and red blood cells after multiple-dose administration of IPE at 2 g per day and 4 g per day was performed in healthy adult male and female humans.
# The study was a phase 1, open-label, randomized, multidose study in healthy, nonsmoking men and women aged>18 and ≤55 years with a body mass index (BMI)>18 and ≤30 kg/m′. Exclusion criteria included use within 6 weeks prior to randomization through study end of any lipid-altering medications or supplements, including statins, niacin at levels of greater than 200 mg/day, fibrates, ezetimibe, bile acid sequestrants, omega-3 fatty acid medications, and supplements or foods enriched with omega-3 fatty acids (no more than 2 servings of fish per week were permitted).
# Following a 14-day screening period, subjects entered a 28-day treatment period and were randomized to one of four IPE dose regimen treatment groups as shown in FIG. 1. Group 1 received IPE 2 g daily (1000-mg capsules; twice-daily [BID] regimen); Group 2 received IPE 4 g daily (1000-mg capsules; BID regimen); Group 3 received IPE 2 g daily (1000-mg capsules; once-daily [QD] regimen); and Group 4 received IPE 2 g daily (500-mg capsules; BID regimen). Treatment was administered orally, with or following a meal in the morning and evening for BID regimens, or in the morning only for the QD regimen. Subjects then entered an 18-day post-treatment pharmacokinetic sampling period.
# Fasting EPA concentrations were measured with a validated liquid chromatography with tandem mass spectrometry (LC-MS/MS) method in plasma and RBCs prior to the morning dose (days 1, 14, 26, 28) and at serial time points (1, 3, 5, 6, 8, 10, 12, 24, 48, 72, 120, 192, 312, and 432 hours) after the morning dose on day 28. After the last dose on day 28, EPA concentrations were followed for 18 days to estimate the expected long half-life of EPA. Total plasma EPA included all EPA forms (unesterified EPA and that incorporated in phospholipids, triacylglycerols, and cholesteryl esters). In RBCs, EPA was measured in the cell membrane, where EPA is mainly incorporated in phospholipids.
# For total EPA in plasma and RBCs, lipids were isolated by acid/methanol/chloroform extraction followed by centrifugation and purified by isohexane and solid-phase extraction after confirmed complete lipid hydrolysis and transmethylation (acid/methanol, 50° C. overnight). For unesterified EPA in plasma, 25 μL of an inhibitor solution (0.5 g sodium fluoride, 1.0 g L-ascorbic acid, and 0.25 g 5-methylisoxazole-3-carboxylic acid per 10 mL water) was included per 1 mL plasma sample to prevent degradation and lipids were isolated by centrifugation after methanol/chloroform extraction (without hydrolysis or methylation) and further purified by protein precipitation and solid-phase extraction. Quantitation utilized linolenic acid as an internal standard and EPA as the standard for the calibration curve; for total plasma EPA, RBC EPA, and unesterified EPA, the lower limits of quantitation were 10 μg/mL, 5 μg/mL, and 50 ng/mL, respectively. EPA concentrations were measured at Charles River Laboratories Ltd (Elphinstone Research Center, Tranent, Edinburgh, Scotland, UK).
# Unless otherwise specified, all reported parameters are based on baseline-subtracted concentrations (baseline is due to EPA derived from dietary sources).
# [3] = IPE 2 g/day vs placebo, P <0.0001
# [4] = IPE 4 g/day vs placebo, P <0.0001
compound,measurement,setting,value
"CC/C=C\C/C=C\C/C=C\C/C=C\C/C=C\CCCC(=O)OCC [IPE, all-cis eicosa-5,8,11,14,17-pentaenoic acid ethyl ester]","Mono-unsaturated, proportion to total fatty acids, Mean placebo-adjusted percent change from baseline","[1]; IPE 2 g/day vs placebo, P 0.0009",−7.4%
same,"Total omega-6, proportion to total fatty acids, Mean placebo-adjusted percent change from baseline","[1]; IPE 2 g/day vs placebo, P 0.3044",3.2%
same,"Saturated, proportion to total fatty acids, Mean placebo-adjusted percent change from baseline","[1]; IPE 2 g/day vs placebo, P 0.8076",−0.4%
same,"Total omega-3, proportion to total fatty acids, Mean placebo-adjusted percent change from baseline",[1]; [3],68.4%
same,"Mono-unsaturated, proportion to total fatty acids, Mean placebo-adjusted percent change from baseline","[1]; IPE 4 g/day vs placebo, P 0.0008",−7.7%
same,"Saturated, proportion to total fatty acids, Mean placebo-adjusted percent change from baseline","[1]; IPE 4 g/day vs placebo, P 0.1049",−2.8%
same,"Total omega-6, proportion to total fatty acids, Mean placebo-adjusted percent change from baseline","[1]; IPE 4 g/day vs placebo, P 0.8846",0.5%
same,"Total omega-3, proportion to total fatty acids, Mean placebo-adjusted percent change from baseline",[1]; [4],132.7%
same,Palmitic Mean placebo-adjusted percent change from baseline,"[1]; IPE 2 g/day vs placebo, P 0.0011",−23.9%
same,Oleic Mean placebo-adjusted percent change from baseline,"[1]; IPE 2 g/day vs placebo, P 0.0023",−23.8%
same,Stearic Mean placebo-adjusted percent change from baseline,"[1]; IPE 2 g/day vs placebo, P 0.0040",−20.7%
same,Linoleic Mean placebo-adjusted percent change from baseline,"[1]; IPE 2 g/day vs placebo, P 0.0136",−15.2%
same,DHA Mean placebo-adjusted percent change from baseline,"[1]; IPE 2 g/day vs placebo, P 0.7217",−2.3%
same,AA Mean placebo-adjusted percent change from baseline,[1]; [3],−16.4%
same,DPAn-3 Mean placebo-adjusted percent change from baseline,[1]; [3],107.2%
same,Oleic Mean placebo-adjusted percent change from baseline,"[1]; IPE 4 g/day vs placebo, P 0.0001",−31.9%
same,Stearic Mean placebo-adjusted percent change from baseline,"[1]; IPE 4 g/day vs placebo, P 0.0002",−28.4%
same,Linoleic Mean placebo-adjusted percent change from baseline,"[1]; IPE 4 g/day vs placebo, P 0.0003",−23.7%
same,DHA Mean placebo-adjusted percent change from baseline,"[1]; IPE 4 g/day vs placebo, P 0.7115",2.4%
same,AA Mean placebo-adjusted percent change from baseline,[1]; [4],−26.8%
same,DPAn-3 Mean placebo-adjusted percent change from baseline,[1]; [4],150.8%
same,Palmitic Mean placebo-adjusted percent change from baseline,[1]; [4],−34.4%
same,dose linearity of EPA exposure (dose-normalized AUC and maximum concentration),"[2]; 2 g/day vs 4 g/day (Group 1 vs. Group 2), total plasma, total RBCs, unesterified EPA",Dose linearity was observed; also recorded: dose-proportional
same,comparison of exposure between QD and BID regimens,"[2]; 2 g/day, Group 1 vs. Group 3",similarity between QD and BID regimens
same,comparison of exposure between 1×1000-mg and 2×500-mg formulations,"[2]; 2 g/day, Group 1 vs. Group 4",similarity; also recorded: comparable exposures at comparable doses
same,"Total EPA in plasma, CL/F",[2]; Group 1: IPE 2 g/d 1 × 1000 mg BID,776.4 mL/h
same,"Total EPA in plasma, CL/F",[2]; Group 2: IPE 4 g/d 2 × 1000 mg BID,683.7 mL/h
same,"Total EPA in plasma, CL/F",[2]; Group 3: IPE 2 g/d 2 × 1000 mg QD,867.7 mL/h
same,"Total EPA in plasma, CL/F",[2]; Group 4: IPE 2 g/d 2 × 500 mg BID,684.5 mL/h
same,mean plasma CL/F of ethyl eicosapentaenoate,[2]; about 1 g orally twice per day,about 776.4+/−256.9 mL/h
same,mean plasma CL/F of ethyl eicosapentaenoate,[2]; about 2 g orally twice per day,about 683.7+/−280.6 mL/h
same,effect of age on AUC0-24hr and maximum concentration of total and unesterified plasma EPA,[2]; graphical examination,no effect of age was observed
same,effect of gender on EPA exposure parameters,[2]; in vivo,no consistent gender effect was observed
